According to ChEMBL document CHEMBL1143080, “Discovery of a novel series of nonsteroidal androgen receptor modulators: 5- or 6-oxachrysen-2-ones” (Bioorg Med Chem Lett, 2008):

Columns and labels:
Androgen receptor [1] = target: T1, Androgen receptor (Homo sapiens, UniProt P10275)
T1 sequence (P10275 whole entry): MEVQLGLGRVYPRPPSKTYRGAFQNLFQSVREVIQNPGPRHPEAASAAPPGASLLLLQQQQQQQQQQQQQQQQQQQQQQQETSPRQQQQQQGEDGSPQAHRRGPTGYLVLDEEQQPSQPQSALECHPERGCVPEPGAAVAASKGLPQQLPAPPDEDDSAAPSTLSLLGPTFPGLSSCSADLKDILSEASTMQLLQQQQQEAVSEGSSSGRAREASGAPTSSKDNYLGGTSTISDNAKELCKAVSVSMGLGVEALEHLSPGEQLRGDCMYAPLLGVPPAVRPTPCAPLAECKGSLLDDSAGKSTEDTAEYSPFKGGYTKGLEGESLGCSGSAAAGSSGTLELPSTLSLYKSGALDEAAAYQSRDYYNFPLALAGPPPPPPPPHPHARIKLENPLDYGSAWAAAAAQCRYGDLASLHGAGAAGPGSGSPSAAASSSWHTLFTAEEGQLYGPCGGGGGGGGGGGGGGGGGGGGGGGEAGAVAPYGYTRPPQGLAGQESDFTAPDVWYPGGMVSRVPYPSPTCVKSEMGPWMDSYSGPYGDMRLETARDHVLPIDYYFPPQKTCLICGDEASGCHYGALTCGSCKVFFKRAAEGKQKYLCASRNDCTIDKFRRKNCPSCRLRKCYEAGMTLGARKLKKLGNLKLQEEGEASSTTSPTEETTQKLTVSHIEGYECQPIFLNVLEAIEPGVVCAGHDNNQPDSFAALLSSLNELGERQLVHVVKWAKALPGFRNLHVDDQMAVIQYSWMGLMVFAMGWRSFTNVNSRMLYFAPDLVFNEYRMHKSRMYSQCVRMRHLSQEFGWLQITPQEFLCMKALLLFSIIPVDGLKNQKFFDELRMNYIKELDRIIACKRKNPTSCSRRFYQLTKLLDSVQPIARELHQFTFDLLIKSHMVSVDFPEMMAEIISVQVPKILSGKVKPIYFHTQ
Description: Activity at androgen receptor in human Saos2 cells assessed as IL6 repression

Androgen receptor [2] = target: T1, Androgen receptor; remark: listed apart in the source
Description: Agonist activity at human androgen receptor african green monkey CV1 cells by cotransfection assay

Androgen receptor [3] = target: T1, Androgen receptor; remark: listed apart in the source
Description: Binding affinity to human androgen receptor expressed in monkey COS7 cells by whole cell binding assay

Androgen receptor [4] = target: T1, Androgen receptor; remark: listed apart in the source
Description: Antagonist activity at human androgen receptor african green monkey CV1 cells by cotransfection assay

SMILES | IC50 (Androgen receptor [1]) | EC50 (Androgen receptor [2]) | Ki (Androgen receptor [3]) | IC50 (Androgen receptor [4])
O=c1cc(C(F)(F)F)c2c3c(ccc2[nH]1)-c1c(O)cccc1OC3 | 0.0011 µM | 0.016 µM | 0.0013 µM | > 10 µM
COc1cccc2c1-c1ccc3[nH]c(=O)cc(C)c3c1C(C)O2 (stereo not given) | – | > 10 µM | 0.25 µM | 0.062 µM
COc1cccc2c1-c1ccc3[nH]c(=O)cc(C)c3c1C(OC)O2 (stereo not given) | 0.112 µM | 0.184 µM | 2.35 µM | 0.019 µM
COc1c(OC(C)C)ccc2oc(=O)c3c(ccc4[nH]c(=O)cc(C)c43)c12 | 0.0028 µM | 0.023 µM | 0.021 µM | 0.02 µM
COc1c(C(=O)OC(F)(F)F)ccc2oc(=O)c3c(ccc4[nH]c(=O)cc(C)c43)c12 | 0.0002 µM | 0.043 µM | 0.01 µM | > 10 µM
COc1cccc2c1-c1ccc3[nH]c(=O)cc(C)c3c1CO2 | 0.012 µM | 0.05 µM | 0.059 µM | > 10 µM
CCOc1ccc2oc(=O)c3c(ccc4[nH]c(=O)cc(C)c43)c2c1OC | 0.01 µM | 0.018 µM | 0.062 µM | > 10 µM
COc1cccc2c1-c1ccc3[nH]c(=O)cc(C)c3c1C(O)O2 (stereo not given) | 0.05 µM | 0.208 µM | 1.3 µM | > 10 µM
Cc1cc(=O)[nH]c2ccc3c4cc(F)ccc4oc(=O)c3c12 | 0.101 µM | 0.24 µM | 1 µM | 0.027 µM
C=CCC1Oc2cccc(OC)c2-c2ccc3[nH]c(=O)cc(C)c3c21 (stereo not given) | – | > 10 µM | 1.59 µM | 0.144 µM
COc1ccc2oc(=O)c3c(ccc4[nH]c(=O)cc(C)c43)c2c1 | 0.0008 µM | > 10 µM | 0.61 µM | 0.048 µM
COc1cccc2c1-c1ccc3[nH]c(=O)cc(C(F)(F)F)c3c1CO2 | 0.014 µM | 0.02 µM | 0.011 µM | > 10 µM
Cc1cc(=O)[nH]c2ccc3c4c(C(=O)OC(C)(C)C)cccc4oc(=O)c3c12 | 0.0019 µM | 0.0011 µM | 0.0087 µM | > 10 µM
COc1cccc2c1-c1ccc3[nH]c(=O)cc(C(F)(F)F)c3c1OC2 | 0.477 µM | > 10 µM | 0.027 µM | 0.078 µM
COc1cccc2c(=O)oc3c(ccc4[nH]c(=O)cc(C(F)(F)F)c43)c12 | 0.089 µM | 0.09 µM | 0.05 µM | > 10 µM
COc1c(O)ccc2c1-c1ccc3[nH]c(=O)cc(C)c3c1CO2 | 0.0012 µM | 0.306 µM | 0.005 µM | 0.019 µM
COc1c(O)ccc2oc(=O)c3c(ccc4[nH]c(=O)cc(C)c43)c12 | 0.0002 µM | 0.021 µM | 0.004 µM | > 10 µM
COc1cccc2oc(=O)c3c(ccc4[nH]c(=O)cc(C)c43)c12 | 0.021 µM | 0.011 µM | 0.028 µM | > 10 µM
